In general, MIC refers to the least concentration at which growth counts as inhibited.

Converted amounts (≈) assume the structure as drawn.

Experiment [1] has as its system Acinetobacter baumannii DSM-30008. In words: MIC microdilution, A. baumannii DSM-30008. Conditions: Acinetobacter baumannii, DSM30008; Gram-negative set; read-out: MIC A. baumannii DSM-30008. The class given is cell-based. The protocol:
(§1) Indicator strains used in susceptibility assays were either part of our strain collection or purchased from the German Collection of Microorgansims and Cell Cultures (DSMZ) or from the American Type Culture Collection (ATCC). E. coli strain WT and corresponding E. coli mutants were kindly provided by Prof. Dr. P. Heisig, Pharmaceutical Biology and Microbiology, University of Hamburg. E. coli strains JW0401-1 (WT) and Δtsx were obtained from the CGSC collection.
(§2) MIC values were determined in standardized microdilution assays. Overnight cultures were diluted in the appropriate growth medium to achieve an inoculum of 10^4-10^6 cfu/mL. Yeasts were grown in Myc medium (1% phytone peptone, 1% glucose, 50 mM HEPES, pH 7.0), S. pneumonia and Enterococcus spp. in tryptic soy broth (TSB: 1.7% peptone casein, 0.3% peptone soymeal, 0.25% glucose, 0.5% NaCl, 0.25% K2HPO4; pH 7.3); M. smegmatis in Middlebrook 7H9 medium supplemented with 10% Middlebrook ADC enrichment and 2 ml/I glycerol). All other listed bacteria were grown in Müller-Hinton broth (0.2% beef infusion solids, 1.75% casein hydrolysate, 0.15% starch, pH 7.4). Cystobactamides and reference drugs were added directly to the cultures in sterile 96-well plates as duplicates and serial dilutions were prepared. Microorganisms were grown on a microplate shaker (750 rpm, 30-37° C., 18-48 h), except S. pneumonia, which was grown at non-shaking conditions (37° C., 5% CO2, 18 h). Growth inhibition was assessed by visual inspection and the MIC was defined as the lowest concentration of compound that inhibited visible growth.
(In general: Dilution methods test growth across graded concentrations, often in twofold steps.)

In experiment [2] the test system is Citrobacter freundii DSM-30039. In words: MIC microdilution, C. freundii DSM-30039. The class given is cell-based. Conditions: Citrobacter freundii, DSM30039; Gram-negative set; read-out: MIC C. freundii DSM-30039. As for the experimental part: as §1, §2
In experiment [3] the test system is E. coli DSM-1116. Kind of experiment: MIC microdilution, E. coli DSM-1116. It counts as cell-based, Escherichia coli. The following applies: Escherichia coli, DSM1116; Gram-negative set; read-out: MIC E. coli DSM-1116. The protocol: as §1, §2
The test system of experiment [4] is E. coli DSM-26863 (tolC3). In words: MIC microdilution, E. coli DSM-26863 (tolC3). The following applies: Escherichia coli, DSM26863, read-out: MIC E. coli DSM-26863 (tolC3). The class given is cell-based, Escherichia coli. As for the experimental part: as §1, §2
The test system of experiment [5] is E. coli WT. Kind of experiment: MIC microdilution, E. coli WT. The class given is cell-based, Escherichia coli. The following applies: Escherichia coli; Gram-negative set; read-out: MIC E. coli WT. As for the experimental part: as §1, §2
The test system of experiment [6] is E. coli WT-3 [gyrA(S83L, D87G)]. In words: MIC microdilution, E. coli WT-3 [gyrA(S83L, D87G)]. It counts as cell-based, Escherichia coli. Conditions: Escherichia coli, read-out: MIC E. coli WT-3 [gyrA(S83L, D87G)]. As for the experimental part: as §1, §2
The test system of experiment [7] is E. coli WT-III [marRΔ74bp]. In words: MIC microdilution, E. coli WT-III [marRΔ74bp]. The class given is cell-based, Escherichia coli. The following applies: Gram-negative set. The protocol: as §1, §2
The test system of experiment [8] is P. aeruginosa DSM-24600 (ESBL). In words: MIC microdilution, P. aeruginosa DSM-24600 (ESBL). The class given is cell-based, Pseudomonas aeruginosa. Conditions: Pseudomonas aeruginosa, DSM24600; Gram-negative set; read-out: MIC P. aeruginosa DSM-24600 (ESBL). The protocol:
as §1, §2

Experiment [9] relates to Proteus vulgaris DSM-2140. Kind of experiment: MIC microdilution, P. vulgaris DSM-2140. The class given is cell-based. The following applies: Proteus vulgaris, DSM2140; Gram-negative set; read-out: MIC P. vulgaris DSM-2140. As for the experimental part:
as §1, §2

For `COC(C(=O)O)C(NC(=O)c1ccc(NC(=O)c2ccc([N+](=O)[O-])cc2)cc1)C(=O)Nc1ccc(C(=O)Nc2ccc(C(=O)Nc3ccc(C(=O)O)cc3OC(C)C)c(O)c2OC(C)C)cc1` (stereo not drawn) [Cys 920-1], the MIC was above 64 µg/mL in [1]; above 64 µg/mL in experiment [2]; above 64 µg/mL in experiment [3]; 64 µg/mL (≈ 69.5 µM) in experiment [4]; above 64 µg/mL in experiment [5]; above 64 µg/mL in experiment [6]. Besides, the MIC in experiment [8] and in [9] was above 64 µg/mL in each case. Also, the “MIC E. coli WT-III [marRΔ74bp]” value in [7] was above 64 µg/mL.

Take `CCC(C)Oc1cc(C(=O)O)ccc1NC(=O)c1ccc(NC(=O)c2ccc(NC(=O)C(OC)C(NC(=O)c3ccc(NC(=O)c4ccc([N+](=O)[O-])cc4)cc3)C(=O)O)cc2)c(OC(C)C)c1O` (stereo not drawn) [Cys 934-2]: the minimal inhibitory concentration (MIC) was above 64 µg/mL in experiment [1]; above 64 µg/mL in [2]; above 64 µg/mL in [3]; 32 µg/mL (≈ 34.2 µM) in experiment [4]; above 64 µg/mL in [5]; above 64 µg/mL in experiment [6]. Further, the MIC in experiment [8] and in [9] was above 64 µg/mL throughout. Besides, the “MIC E. coli WT-III [marRΔ74bp]” value in experiment [7] is above 64 µg/mL.

Consider `COC(C(N)=O)C(NC(=O)c1ccc(NC(=O)c2ccc([N+](=O)[O-])cc2)cc1)C(=O)Nc1ccc(C(=O)Nc2ccc(C(=O)Nc3ccc(C(=O)O)c(O)c3OC(C)C)c(O)c2OC(C)C)cc1` (stereo not drawn) [Cys 935-2], for which the minimum inhibitory concentration (MIC) worked out at 2 µg/mL (≈ 2.14 µM) in experiment [1]; 1 µg/mL (≈ 1.07 µM) in [2]; 0.5 µg/mL (≈ 0.534 µM) in experiment [3]; 0.25 µg/mL (≈ 0.267 µM) in [4]; 0.5 µg/mL (≈ 0.534 µM) in [5]; 2 µg/mL (≈ 2.14 µM) in experiment [6]. For the same compound, the minimal inhibitory concentration (MIC) in experiment [8] is 8 µg/mL (≈ 8.55 µM); in [9] it was 1 µg/mL (≈ 1.07 µM). For the same compound, the “MIC E. coli WT-III [marRΔ74bp]” value in [7] came to 2 µg/mL (≈ 2.14 µM).
